Test results taken from patent US20120165403A1, “METHODS OF INHIBITING THE ACTIVITY OF HSP90 AND/OR ARYL HYDROCARBON RECEPTOR” (UNIVERSITY OF ROCHESTER, priority 2004, published 2012).

Target: T1, XAP2 (Mus musculus, UniProt O08915)
T1 construct: His tag; made in house; host or cells: TNT rabbit reticulocyte lysate; partly purified on TALON cobalt resin
T1 sequence (O08915 1-330): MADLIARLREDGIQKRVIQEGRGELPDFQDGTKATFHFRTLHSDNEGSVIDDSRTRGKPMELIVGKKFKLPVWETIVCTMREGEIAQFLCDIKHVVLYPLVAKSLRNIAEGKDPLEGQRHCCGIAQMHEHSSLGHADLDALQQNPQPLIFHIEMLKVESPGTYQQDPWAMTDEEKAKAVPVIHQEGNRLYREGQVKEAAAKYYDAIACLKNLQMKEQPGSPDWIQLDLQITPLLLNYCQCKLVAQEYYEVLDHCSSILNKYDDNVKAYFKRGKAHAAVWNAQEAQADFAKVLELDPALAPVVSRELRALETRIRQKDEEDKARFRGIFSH
Test: Affinity chromatography on EGCG-conjugated Sepharose, XAP2
Type: binding
Excerpt: Murine AhR and ARNT cDNA (obtained from J. Whitlock and O. Hankinson, respectively) were inserted into pcDNA3 (Invitrogen, Carlsbad, Calif.). Chicken hsp90 constructs (FIG. 5), c90711hsp (wild-type), c90G94D (wild-type point mutant gly94→Asp (Grenert et al., J. Biol. Chem. 272:23843-23850 (1997), which is hereby incorporated by reference in its entirety), c90D92A (wild-type point mutant Asp92→Ala (Sullivan et al., J. Biol. Chem. 268:20373-20379 (1993), which is hereby incorporated by reference in its entirety), c90N221 (wild-type truncation mutant encoding a.a. 221-728 (Sullivan et al., J. Biol. Chem. 268:20373-20379 (1993), which is hereby incorporated by reference in its entirety)), c90N303 (a.a. 303-728) and c90N538 (a.a. 538-728) were kind gifts from Dr. D. Toft (Rochester, Minn.). The C-terminal truncation mutant c900507 (a.a. 1-221) was obtained from Dr. L. Neckers (Rockville, Md.) (Grenert et al., J. Biol. Chem. 272:23843-23850 (1997); Marcu et al., J. Biol. Chem. 275:37181-37186 (2000), which are hereby incorporated by reference in their entirety). Human p23 cDNA was excised from pQE80-p23 (obtained from W. Chan Stockton, Calif.) by sequential digests using the restriction enzymes Sad (3′-end) and BamHI (5′-end) and inserted into the similarly digested pET28a (Novagen, Madison, Wis.). The mouse histidine-tagged XAP2 construct, pET-AIP (Bell et al., J. Biol. Chem. 275:36407-36414 (2000), which is hereby incorporated by reference in its entirety), was a kind gift from Dr. D. Bell (Nottingham, UK). All constructs are in the T7 orientation with the exception of c900507, which is driven by an SP6 promoter.
AhR, ARNT, hsp90 (wild-type, point mutants, and truncation mutants), p23, and XAP2 were generated (separately) by coupled transcription/translation in rabbit reticulocyte lysate (RRL) using the TNT® system according to the manufacturer's protocol (Promega, Madison Wis.). In this system, ^35S-methionine was included in the transcription/translation mix to generate ^35S-labeled protein.
Immobilized Metal Affinity Chromatography (IMAC) Purification of Histidine-Tagged XAP2. The TALON IMAC method was used for purification of XAP2 from RRL following a modified protocol (Clonetech). A 500 μL (50% slurry) of cobalt resin was washed at room temperature three times with TALON buffer (50 mM Na2PO4, 300 mM NaCl, pH 7.0) according to the manufacturer's protocol. A 175 μL aliquot of undiluted ^35S-XAP2 in RRL was added to a 15 ml conical tube containing the washed resin in TALON buffer for 20 minutes at room temperature end-over-end. […] Each aliquot was collected separately and analyzed for the presence of ^35S-XAP2 by SDS-PAGE followed by Phosphorimaging (PSI; Molecular Dynamics, Sunnyvale, Calif.). […]

O=C(O[C@@H]1Cc2c(O)cc(O)cc2O[C@@H]1c1cc(O)c(O)c(O)c1)c1cc(O)c(O)c(O)c1 [EGCG, epigallocatechin gallate]
binding of XAP2 to EGCG-Sepharose (35S-XAP2 in RRL): eluted from EGCG-Sepharose
binding of XAP2 to EGCG-Sepharose (Hepa cytosol): also eluted from EGCG-Sepharose
binding of purified XAP2 to immobilized EGCG (His-purified XAP2, devoid of detectable hsp90): not specifically eluted from immobilized EGCG
binding of purified XAP2 after reconstitution (His-purified XAP2 with purified hsp90 or RRL): restores XAP2 elution
